The values that follow come from PMC6920776, “Exploring Biological Activity of 4-Oxo-4H-furo[2,3-h]chromene Derivatives as Potential Multi-Target-Directed Ligands Inhibiting Cholinesterases, β-Secretase, Cyclooxygenase-2, and Lipoxygenase-5/15” (Biomolecules, 2019).

The IC50 is the concentration needed to halve the response being measured. As a reminder, the Ki is the dissociation constant of the complex between target and ligand, obtained from inhibition or displacement.

In one data set the target is T1, human LOX-5 (Homo sapiens, UniProt P09917).
T1 construct: purchased BioVision K980
T1 sequence (P09917 1-674): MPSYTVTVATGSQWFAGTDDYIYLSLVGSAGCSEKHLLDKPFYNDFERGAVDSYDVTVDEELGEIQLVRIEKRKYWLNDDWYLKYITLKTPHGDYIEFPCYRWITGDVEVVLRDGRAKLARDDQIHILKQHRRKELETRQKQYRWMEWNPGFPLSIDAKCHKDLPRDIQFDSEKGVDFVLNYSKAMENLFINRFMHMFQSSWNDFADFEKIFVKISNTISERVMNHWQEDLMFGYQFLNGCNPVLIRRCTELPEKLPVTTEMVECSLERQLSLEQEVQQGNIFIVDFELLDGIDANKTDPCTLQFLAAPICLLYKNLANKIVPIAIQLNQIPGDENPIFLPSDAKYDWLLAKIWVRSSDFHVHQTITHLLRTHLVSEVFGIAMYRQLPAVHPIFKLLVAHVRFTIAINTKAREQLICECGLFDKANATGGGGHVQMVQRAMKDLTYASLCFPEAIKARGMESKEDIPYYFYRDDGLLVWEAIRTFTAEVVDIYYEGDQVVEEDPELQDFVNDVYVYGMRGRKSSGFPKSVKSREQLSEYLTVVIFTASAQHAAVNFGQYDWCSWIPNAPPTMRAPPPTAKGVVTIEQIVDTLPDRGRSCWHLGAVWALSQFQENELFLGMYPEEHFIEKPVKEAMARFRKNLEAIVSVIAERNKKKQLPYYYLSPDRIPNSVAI
In words: Human LOX-5 inhibitory assay. In kind it is biochemical. As to conditions: human LOX-5, duplicate; read-out: IC50 LOX-5.

A further data set concerns Hek293-T cells. Kind of data set: MTT cytotoxicity assay, Hek293-T. The following applies: up to a concentration of 50 μM. (In general: Tetrazolium dyes change colour on reduction, which living cells bring about.)
The target of data set [1] is T2, AChE (Homo sapiens, UniProt P22303). In kind it is biochemical.
T2 sequence (P22303 32-614): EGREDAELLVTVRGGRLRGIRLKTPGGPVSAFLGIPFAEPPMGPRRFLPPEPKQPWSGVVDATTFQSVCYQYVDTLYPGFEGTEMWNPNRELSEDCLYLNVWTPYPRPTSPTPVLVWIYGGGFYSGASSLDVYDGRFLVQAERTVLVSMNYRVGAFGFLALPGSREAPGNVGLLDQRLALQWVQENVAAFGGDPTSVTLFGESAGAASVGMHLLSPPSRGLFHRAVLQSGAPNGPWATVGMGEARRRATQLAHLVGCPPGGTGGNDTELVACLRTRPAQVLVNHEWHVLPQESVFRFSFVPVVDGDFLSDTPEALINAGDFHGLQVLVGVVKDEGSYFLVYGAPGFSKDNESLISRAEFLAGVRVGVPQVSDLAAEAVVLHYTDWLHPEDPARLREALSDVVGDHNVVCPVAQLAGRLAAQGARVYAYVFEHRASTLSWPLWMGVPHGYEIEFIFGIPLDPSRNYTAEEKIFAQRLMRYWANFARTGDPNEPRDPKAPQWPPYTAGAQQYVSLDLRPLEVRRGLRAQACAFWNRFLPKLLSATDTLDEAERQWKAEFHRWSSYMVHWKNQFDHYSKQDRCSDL
Source text: (§1) The Lineweaver–Burk plots (plots of the inverse of velocity against the inverse of the substrate concentration) were used to ascertain the mode of inhibition of these compounds. The Dixon plots of the inverse of velocity (1/v) against the concentration of the inhibitor at each concentration of substrate were used to determine their inhibitor constants (Ki).
Data set [2] has as its target T3, BChE (Homo sapiens, UniProt P06276).
T3 construct: purchased Cloud-Clone Corp., through BIOCOM Africa (Pty) Ltd RPC348Hu0 2_100
Kind of data set: biochemical. The following applies: Ellman's method, triplicate. Background: Ellman's reagent forms a yellow product with free thiols.
Procedure: Their anti-AChE and BChE activities were determined by spectrophotometric Ellman’s method [42]. […] The mixtures were incubated for 15 min at RT. The reaction was initiated by adding 10 µL of a mixture solution of 5 mM 5,50-dithio-bis-nitrobenzoic acid (DTNB) in 50 mM tris buffer (pH 7.7) and 10 µL acetylthiocholine (ASCh) (5 mM) in 50 mM tris buffer, pH 7.7. The hydrolysis of ASCh was determined by monitoring the formation of the yellow 5-thio-2-nitrobenzoate anion resulting from reaction of DTNB with thiocholines (SCh).
The IC50 values were determined graphically from inhibition curves (inhibitor concentration and absorbance) using the graph pad prism.

Data set [3] relates to breast cancer MCF-7 cell line. Kind of data set: MTT antigrowth assay, MCF-7. It is filed as cell-based. As to conditions: 24 h treatment, preliminary results, read-out: IC50 antigrowth effect, MCF-7.
Procedure: (§2) Briefly, the Hek293-T cells and MCF-7 cancer cells were seeded in a 96-well plate at a density of 20 × 10^3 cells per well, and then incubated at 37 °C in 5% CO2 to allow cell attachment. The medium was removed and replaced with fresh medium containing various concentrations of the test sample and doxorubicin hydrochloride (10, 25, 50, 100, and 200 μM) and incubated for 24 h. After treatment for 24 h, 10 μL MTT (5 mg/mL) was added to each well and the plate was further incubated for 4 h. The supernatant was removed, and 100 μL of DMSO was added to each well to dissolve the resulting formazan crystals. The absorbance was read at 570 nm using the Varioskan flash microplate spectrophotometer reader and the cell viability. The percentages of cell viability were used to determine the IC50 values.
Data set [4] has as its target T4, BACE-1 (Homo sapiens, UniProt P56817).
T4 construct: purchased Pan Vera; host or cells: baculovirus expression
Kind of data set: Kinetic study against β-secretase (Lineweaver-Burk and Dixon plots). It is filed as biochemical.
Source text: The Lineweaver–Burk plot (plot of the inverse of velocity (1/v) against the inverse of the substrate concentration (1/[S])) was used to ascertain the mode of inhibition of this compound.

Data set [5] is described as follows: DPPH radical scavenging assay. The following applies: 45 min in the dark, triplicate. On the procedure: The DPPH radical scavenging activity of compounds 2a–i and 3a–i was evaluated following the literature method by Zhu et al.. The compounds were evaluated against ascorbic acid (Sigma Aldrich, Saint Louis, Missouri, USA) as a positive control. Various concentrations of the test compounds and control (0 µM to 40 µM) in DMSO were mixed with a solution of DPPH (0.20 mM) in methanol. The mixtures were incubated in the dark for 45 min and then the absorbances were recorded at 512 nm using Varioskan flash microplate spectrophotometer reader. All tests and analyses were run in triplicate and averaged. The inhibition was calculated in terms of percentage using the formula below: DPPH radical scavenged (%)=AbC − AbS/AbC×100 where AbC is absorbance of control and AbS the absorbance of the test sample.

The next data set concerns the target T5, COX-2 (Homo sapiens, UniProt P35354).
T5 construct: purchased Bio Vision K547
T5 sequence (P35354 18-604): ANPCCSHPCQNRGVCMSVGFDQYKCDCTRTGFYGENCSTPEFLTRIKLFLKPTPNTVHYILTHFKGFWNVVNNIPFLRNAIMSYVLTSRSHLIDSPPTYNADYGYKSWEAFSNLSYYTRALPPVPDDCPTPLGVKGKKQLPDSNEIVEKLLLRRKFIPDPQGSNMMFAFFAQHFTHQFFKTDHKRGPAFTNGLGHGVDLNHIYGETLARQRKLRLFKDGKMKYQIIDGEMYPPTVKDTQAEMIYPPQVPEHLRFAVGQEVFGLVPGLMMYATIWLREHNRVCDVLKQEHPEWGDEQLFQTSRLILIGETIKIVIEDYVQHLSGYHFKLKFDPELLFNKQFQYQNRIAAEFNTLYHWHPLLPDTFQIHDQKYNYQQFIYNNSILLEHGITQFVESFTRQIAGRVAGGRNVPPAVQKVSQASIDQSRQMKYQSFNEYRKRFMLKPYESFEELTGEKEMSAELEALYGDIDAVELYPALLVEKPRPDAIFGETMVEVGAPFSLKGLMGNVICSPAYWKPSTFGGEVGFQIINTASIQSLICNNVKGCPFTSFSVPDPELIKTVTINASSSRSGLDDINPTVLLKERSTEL
Kind of data set: biochemical. The following applies: duplicate runs.

In data set [6] the target is T3, BChE. It is filed as biochemical.
Source text: as §1
Data set [7] has as its target T2, AChE. Kind of data set: biochemical.
Data set [8] addresses T6, soybean lipoxygenases-15 (LOX-15) (Glycine max, UniProt P08170).
T6 construct: purchased Cayman Chemicals 760700
T6 sequence (P08170 1-839): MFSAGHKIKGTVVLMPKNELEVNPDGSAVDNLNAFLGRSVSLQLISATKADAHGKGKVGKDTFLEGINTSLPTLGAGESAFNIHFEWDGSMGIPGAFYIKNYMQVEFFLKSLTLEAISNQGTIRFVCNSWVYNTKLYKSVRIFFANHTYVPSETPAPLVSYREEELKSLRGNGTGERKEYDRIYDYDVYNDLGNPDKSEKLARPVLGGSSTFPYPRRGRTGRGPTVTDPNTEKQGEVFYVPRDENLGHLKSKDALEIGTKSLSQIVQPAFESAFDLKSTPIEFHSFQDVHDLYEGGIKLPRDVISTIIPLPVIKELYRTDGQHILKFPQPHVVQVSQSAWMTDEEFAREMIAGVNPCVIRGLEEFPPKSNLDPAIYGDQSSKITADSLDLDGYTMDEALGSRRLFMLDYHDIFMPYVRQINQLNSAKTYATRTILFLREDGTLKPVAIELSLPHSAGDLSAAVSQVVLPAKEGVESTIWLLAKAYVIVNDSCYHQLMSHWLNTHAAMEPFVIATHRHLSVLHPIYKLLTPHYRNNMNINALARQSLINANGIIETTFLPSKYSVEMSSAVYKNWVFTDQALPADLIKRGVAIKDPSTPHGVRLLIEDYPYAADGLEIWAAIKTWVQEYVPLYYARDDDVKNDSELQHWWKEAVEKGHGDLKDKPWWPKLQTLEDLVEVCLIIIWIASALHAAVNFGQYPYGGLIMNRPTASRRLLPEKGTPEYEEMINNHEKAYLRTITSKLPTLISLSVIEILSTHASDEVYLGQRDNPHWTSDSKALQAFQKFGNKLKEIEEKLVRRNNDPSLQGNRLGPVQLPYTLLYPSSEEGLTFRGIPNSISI
Kind of data set: Soybean LOX-15 inhibitory assay. The following applies: soybean LOX-15, duplicate runs; read-out: IC50 LOX-15. It is filed as biochemical.
Procedure: Stock solutions of the test samples prepared in DMSO were further diluted with 50 mM Tris buffer of pH 7.7 to obtain concentrations of 0.01, 0.1, 1, 10, and 100 µM. The cells of a 96-well plate where arranged as follows: two wells taken as blanks (100 µL 50mM Tris buffer pH, 7.7), two wells taken as enzyme controls (90 µL of 15-LO Standard and 10 µL of DMSO), and two as 100% initial activity wells (90 µL lipoxygenase enzyme solution and 10 µL tris buffer). Then, 90 µL of lipoxygenase enzyme solution and 10 µL of each test compound (and reference standards) from the above concentrations were added to the other wells of a 96-well plate, and the plate was incubated for 5 min at room temperature. The reaction was initiated by addition of 10 µL of the arachidonic acid to each well containing the assay mixtures. The 96-well plate was shaken for 5 min on a shaker, and 100 µL of the chromogen (solution of equal volume developing reagent 1 and 2) was added to each well to initiate the reaction. The plate was again shaken for 5 min and the absorbance read at 490 nm in a Varioskan flash microplate spectrophotometer reader. The inhibitory concentration was expressed as a percentage using the formula below. Inhibitory concentration = AInitial activity −(ASample − ABlank sample)/AInitial activity×100 where ASample is the absorbance of the reaction mixture of the test sample, ABlank sample is the absorbance of the reaction mixture containing all reagents except enzyme, and AInitial activity is the absorbance of 100% initial activity.

Data set [9] deals with T4, BACE-1. In words: β-Secretase FRET inhibition assay. In kind it is biochemical. The following applies: pH 4.5, 60 min at 25 °C, triplicate.
Setting [10] is: Lineweaver-Burk and Dixon plots.

T4 sequence (P56817 46-501): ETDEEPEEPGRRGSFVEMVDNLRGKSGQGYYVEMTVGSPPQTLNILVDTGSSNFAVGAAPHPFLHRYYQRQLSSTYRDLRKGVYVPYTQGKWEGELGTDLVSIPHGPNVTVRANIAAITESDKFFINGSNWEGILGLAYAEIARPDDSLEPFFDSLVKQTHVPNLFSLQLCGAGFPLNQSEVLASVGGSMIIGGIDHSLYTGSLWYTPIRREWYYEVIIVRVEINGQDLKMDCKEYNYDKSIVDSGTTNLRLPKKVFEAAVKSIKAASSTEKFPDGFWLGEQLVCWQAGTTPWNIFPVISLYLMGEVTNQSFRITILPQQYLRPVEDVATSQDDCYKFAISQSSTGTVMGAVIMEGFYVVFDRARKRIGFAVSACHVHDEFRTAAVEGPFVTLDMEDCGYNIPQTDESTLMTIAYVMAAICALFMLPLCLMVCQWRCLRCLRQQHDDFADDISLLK
T3 sequence (P06276 29-602): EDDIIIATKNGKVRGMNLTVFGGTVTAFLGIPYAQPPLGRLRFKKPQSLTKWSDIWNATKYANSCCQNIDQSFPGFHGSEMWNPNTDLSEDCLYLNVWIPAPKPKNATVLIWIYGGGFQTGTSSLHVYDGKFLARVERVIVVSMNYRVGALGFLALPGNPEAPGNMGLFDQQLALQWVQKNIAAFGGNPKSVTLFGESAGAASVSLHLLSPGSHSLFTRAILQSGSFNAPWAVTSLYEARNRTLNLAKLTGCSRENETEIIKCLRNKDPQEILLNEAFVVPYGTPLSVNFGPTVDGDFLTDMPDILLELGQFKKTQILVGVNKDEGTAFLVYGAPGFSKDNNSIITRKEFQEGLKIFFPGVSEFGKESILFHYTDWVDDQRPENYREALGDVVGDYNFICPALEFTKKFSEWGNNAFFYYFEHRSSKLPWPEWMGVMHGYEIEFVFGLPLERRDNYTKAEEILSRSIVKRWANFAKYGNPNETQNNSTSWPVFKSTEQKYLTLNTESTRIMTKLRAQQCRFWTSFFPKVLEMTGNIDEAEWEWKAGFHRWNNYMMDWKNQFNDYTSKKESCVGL
Procedure for COX-2: The reagents for the COX-2 assay were prepared according to the standard protocol enclosed in the Cyclooxygenase inhibitor screening kit (Item No. K547; Bio Vision, Milpitas Blvd, Milpitas, CA USA). […] The assay mixtures in a 96-well plate were distributed as follows: two wells taken as enzyme control (10µL assay buffer) and two wells as inhibitor control (2 µL of celecoxib and 8 µL of COX assay buffer). Ten microliters of the test compounds concentrations and those of celecoxib were added to the remaining wells with the aid of a multi-channel pipette. Then, 80 µL of the reaction mix (a mixture of 76 µL COX assay buffer, 1 µL of COX probe, 2 µL of diluted COX cofactor and 1 µL of COX-2 enzyme) were added to the reaction mixture. The assay mixtures in the 96-well plate were incubated for 5 min. The reactions were initiated by the addition of 10 µL of diluted arachidonic acid and sodium hydroxide solution (10 µL of arachidonic acid and 90 µL of sodium hydroxide) to each well. The absorbance was measured using a Varioskan flash microplate spectrophotometer, and the IC50 was calculated with the aid of a graph pad prism
Procedure for Hek293-T cells: as §2
Procedure for human LOX-5: The reagents were prepared according to the Lipoxygenase inhibitor screening kit (Item No. K980; BioVision, Milpitas Blvd, Milpitas, CA, USA) standard protocol. Stock solutions of the test compounds were prepared in DMSO, and further diluted with 50 mM Tris HCl buffer (pH 7.7) to obtain final concentrations of 0.01, 0.1, 1, 5, and 10 µM. […] The wells of a 96-well plate were arranged as follows: two wells were taken as blanks (40 µL of assay buffer) and two as enzyme controls (2 µL of LOX-5 Standard and 38 µL of tris buffer). Two microliters (2 µL) of the test compounds (various concentration of test compounds and reference standards, respectively) followed by 38 µL of LOX assay buffer were added to the other wells of the 96-well plate in duplicate. Then, 40 µL of the reaction mixture (prepared by mixing thoroughly 36 µL of LOX assay buffer, 2 µL of LOX probe and 2 µL of LOX-5 enzyme) was added to each well containing the test mixtures, and the wells were incubated for 10 min at RT. The DMSO concentration in each reaction well was 1% to prevent enzyme structural deformation and, therefore, reduced activity. […] The percentage inhibition (%) was calculated using the equation below.
% Inhibition = Control − Test/Control×100

“2-(4-Chlorophenyl)-6-[(4-trifluoromethylphenyl)hydrazonomethyl]furo[3,2-h]chromen-5-one [Compound 3e]”: the IC50 at human LOX-5 came out at 28.5 ± 0.02 µM; against BChE [2], 9.9 ± 0.04 µM; in data set [3] it was 6.82 ± 0.02 µM; in [5] it was 25.9 ± 0.05 µM; against COX-2 it was 10.4 ± 0.03 µM; on AChE [7] (recombinant human AChE, Ellman's method, triplicate) it was 5.4 ± 0.02 µM. For the same substance, the concentration for half-maximal inhibition (IC50) is 14.9 ± 0.04 µM in data set [8] and 13.6 ± 0.02 µM against BACE-1 [9]. For the same substance, the “Toxicity in Hek293-T cells” value in the data set with Hek293-T cells is listed as “non-toxic”. For the same substance, the Ki at AChE [1] (Dixon plot) was found to be 1.6 ± 0.01 µM; at BACE-1 [4] (Dixon plot, substrate 150, 300 and 450 nM), 2.5 ± 0.01 µM; at BChE [6] (Dixon plot), 1.92 ± 0.01 µM. At AChE [1] (setting [10]), the “Mode of inhibition, AChE” value is “non-competitive mode of inhibition”. Also, the “Mode of inhibition, BACE-1” value at BACE-1 [4] (setting [10]) is “mixed mode of inhibition”. Besides, the “Mode of inhibition, BChE” value at BChE [6] (setting [10]) is “non-competitive mode of inhibition”. Moreover, the “Selectivity index (SI)” value at AChE [7] (SI = IC50 (AChE)/IC50 (BChE)) came out at 0.5.
